Assay results reported in patent publication US12492403B2, “Aptamers and the use thereof in the treatment of cancer” (FUNDACIÓN PARA LA INVESTIGACIÓN BIOMÉDICA DEL HOSPITAL …, priority 2018, dated 2025).

Assays:
[1] = test system: MCF7, MDA-MB-231, and MDA-MB-468 cells; experiment: MTT activity after direct addition of aptamer (no transfectant); type: cell-based, human; details: direct addition without transfectant, highest tested concentration (0.5, 1, and 2 μM tested), 48 hours
Description: FIG. 17. MTT activity measurement in breast lines after the direct addition of apMNKQ2. MCF7, MDA-MB-231, and MDA-MB-468 cells were seeded in 96-well plates at a density of 10^4 cells/well, and apMNKQ2 was added at concentrations of 0.5, 1, and 2 μM at 24 hours. MTT assays were performed after 48 hours. The graphs represent the mean of 3 independent experiments, and are normalized with respect to the control of the untreated cells.
MTT activity. The cells were seeded in 96-well plates and after having been transfected, the culture medium was removed and 100 μL/well of MTT at 1 mg/ml in culture medium were added. The plates were incubated for 90 minutes in an incubator with a moisture-saturated environment at 37° C. and 5% CO2/[…] and 100 μL/well of a lysis solution (10% SDS and 10 mM HCl) were added for dissolving the crystals. After 48 hours, the reduction of MTT was determined by means of spectrophotometry in Infinite F200 (TECAN, Switzerland) at 540 nm.
The signal of the aptamer with lipofectamine (FIG. 16B) is more intense and less scattered than when the aptamer enters directly (FIG. 16A). The difference is more evident in the aggregates co-localized in the nucleus. […]

[2] = Stability in human plasma; type: in vitro ADME; details: 37° C., 72 hours
Description: FIGS. 7A and 7B. Stability of apMNKQ2. Chip Experion™ DNA 1K Analysis Kit (BioRad, USA) for analyzing the stability of apMNKQ2 with 1 unit, 0.5 units, and 0.25 units of DNase I (FIG. 7A). In FIG. 7B, the degradation of aptamer apMNKQ2 in human plasma at 0, 6, 16, 24, 48, and 72 hours is depicted.
The previously structured aptamer apMNKQ2 (1 μg) was incubated in the presence of 1 unit, 0.5 units, and 0.25 units of the enzyme DNase I (ThermoFisher Scientific, USA) in the buffer supplied by the company (10 mM Tris HCl, pH 7.5, 2.5 mM MgCl2, 0.1 mM CaCl2)) for 5 minutes at 37° C., and the reaction was then stopped by adding 1 μL of 50 mM EDTA (ThermoFisher Scientific, USA) and heating at 65° C. for 10 minutes. […] The samples were analyzed using an Experion™ DNA 1K Analysis Kit chip (BioRad, USA). The intensity of each of the bands corresponding to the aptamers treated or not treated with DNase I or plasmas was assessed and the percentage of stability was calculated by dividing the value obtained for each of the treated aptamers by the value obtained for the untreated aptamer.
Resistance of the aptamer to degradation by DNases was analyzed by incubating […] of structured apMNKQ2 in the presence of three concentrations of DNase I (Thermo Scientific, USA), as described in the Materials and Methods section. […]

[3] = test system: MCF7 cells; experiment: Colony formation assay; type: cell-based, human; details: MCF7, 150 nM, colonies quantified 9-12 days after seeding
Description: (§1) FIGS. 12A & 12B. Effect of apMNKQ2 on cell clonogenicity. MCF7, MDA-MB-231, and MDA-MB-468 cells were seeded in 24-well plates at a density of 3×10^4 cells/well and transfected at 24 hours with apMNKQ2 at the previously established working concentrations (FIG. 12A). After 24 hours, the cells were collected, counted, and seeded in 6-well plates with 1000 cells/well for MCF7 and MDA-MB-231 and with 5000 cells/well for MDA-MB-468 (FIG. 12B). The boxes represent the mean±the maximum and minimum of 4-5 independent experiments (*p<0.05 and **p<0.01 with respect to the control aptamer AT).
(§2) To perform these assays, 3×10^4 cells/well were seeded in 24-well plates with every 2 wells being considered an experimental point. At 16-24 hours, the cells were transfected with apMNKQ2 or the control aptamer. At 16-24 hours post-transfection, the cells of every two wells were pooled, resuspended in the corresponding medium, counted, and after performing the suitable dilutions, reseeded 1×10^3 or 5×10^3 cells/well in duplicate in 6-well plates. These plates were left in the incubator with a moisture-saturated environment at 37° C. and 5% CO2/[…] for 8-9 days. After this time, the colonies were fixed with methanol (Merck, Germany) for 10 minutes, stained with 0.02% giemsa (Sigma-Aldrich, USA) for 30 minutes, washed with water to eliminate the remaining dye, and left to dry at room temperature. To count the colonies, a colony counter pen (Heathrow Scientific® LLC, United Kingdom) and a magnifying glass (1.75×) (Bel-Art Scienceware, USA) were used. The results were expressed in number of colonies and normalized in percentage with respect to the control.
(§3) For these assays, 1000 cells/well in 6-well plates had previously been established for the MCF7 and MDA-MB-231 lines, however, the PE of the MDA-MB-468 cells was lower (11.5±5.3%), so 5000 cells were seeded. The cells were transfected with apMNKQ2 and the control AT, and collected and reseeded at 24 hours to perform the colony formation assay. The colonies were quantified 9-12 days after seeding. […]

[4] = test system: MDA-MB-231 cells; experiment: Colony formation assay; type: cell-based, human; details: MDA-MB-231, 400 nM, colonies quantified 9-12 days after seeding
Description: as §1, §2, §3

[5] = test system: MDA-MB-468 cells; experiment: Colony formation assay; type: cell-based, human; details: MDA-MB-468, 50 nM, colonies quantified 9-12 days after seeding
Description: as §1, §2, §3

## 5′TGGGGTGGGCGGGCGGGGGTGGGGGTGGT-3′ (DNA, backbone and methylation of C not given here; further chemistry not fully specified) [apMNKQ2]
[1]
  reduction of MTT activity: 15%
[2]
  degradation in human plasma: no degradation
[3]
  inhibition in colony formation with respect to control aptamer AT: statistically significant
[4]
  inhibition in colony formation with respect to control aptamer AT: statistically significant
[5]
  inhibition in colony formation with respect to control aptamer AT: statistically significant
